Assay results reported in ChEMBL document CHEMBL5226289, “Discovery of natural anti-inflammatory alkaloids: Potential leads for the drug discovery for the treatment of inflammation” (Eur J Med Chem, 2021).

System: not listed separately
Assay: Inhibition of NO production in LPS-stimulated mouse BV-2 cells preincubated with compound for 1 hrs followed by LPS stimulation and measured after 24 hrs by Griess reagent-based assay
Type: functional, cell-based
Conditions: not given

IC50	Structure (SMILES)
6.4 µM	O=Cc1cc2c(cc1O)[nH]c1cc(O)ccc12 [CLAUSINE O]

System: not listed separately
Assay: Inhibition of TNF-alpha production in LPS-stimulated human PBMC cells
Type: functional, cell-based
Conditions: not given

IC50	Structure (SMILES)
7 µM	COc1cc(C)cc2c1[nH]c1ccccc12 [MURRAYAFOLINE A]
9.4 µM	COc1ccc2c(c1)[nH]c1c3c(c(C)cc12)OC(C)(C)C=C3
10 µM	COc1cc(Cc2ccc3c(c2)[nH]c2c4c(c(C)cc23)OC(C)(CCC=C(C)C)C=C4)cc2c1[nH]c1ccccc12 (centres undefined)

System: not listed separately
Assay: Inhibition of IL6 production in LPS-stimulated human PBMC cells
Type: functional, cell-based
Conditions: not given

IC50	Structure (SMILES)
8.4 µM	COc1cc(C)cc2c1[nH]c1ccccc12 [MURRAYAFOLINE A]
8.4 µM	COc1ccc2c(c1)[nH]c1c3c(c(C)cc12)OC(C)(C)C=C3

System: HEp-2
Assay: Cytotoxicity against human HEp-2 cells assessed as inhibition of cell growth incubated for 48 hrs by MTT assay
Type: functional, cell-based
Conditions: HEp-2, 48 h, pooled result: one value given for 7 cell lines, strains, targets or settings

Structure (SMILES)	IC50
COC1=CC(=O)c2cc3c4c(cc(OC)c(OC)c4c2C1=O)CCN3C	10.5 µM
COC1=CC(=O)c2cc3c4c(cc(O)c(OC)c4c2C1=O)CCN3C	8.7 µM
COc1ccc2c(cc3c4c(cc5c(c42)OCO5)CCN3C)c1O	28.9 µM

System: not listed separately
Assay: Antiinflammatory activity in rat polymorphonuclear leucocyte cells assessed as inhibition of PAF-induced beta-glucuronidase release at 10 uM relative to control
Type: functional
Conditions: not given

Structure (SMILES)	inhibition at 10 µM
CN1CCc2cc3c(cc2[C@@H]1[C@H]1OC(=O)c2c1ccc1c2OCO1)OCO3	34.8%
CN1CCc2cc3c(cc2[C@@H]1[C@H]1OC(O)c2c1ccc1c2OCO1)OCO3 (some centres undefined)	36.5%
CN1Cc2cc3c(cc2Cc2ccc4c(c2C1)OCO4)OCO3	39.6%
C[C@@H]1C(=O)O[C@H]2C(O)C34[C@H]5C[C@@H](C(C)(C)C)[C@]36[C@@H](OC(=O)[C@@H]6O)O[C@@]4(C(=O)O5)[C@@]12O (some centres undefined)	51.3%
COC1O[C@H]([C@H]2c3cc4c(cc3CCN2C)OCO4)c2ccc3c(c21)OCO3 (some centres undefined)	37.7%

Target: Prostaglandin G/H synthase 1 (Homo sapiens, UniProt P23219)
Assay: Inhibition of COX-1 (unknown origin) using arachidonic acid as substrate at 100 uM preincubated for 5 mins followed by substrate addition and measured after 15 mins relative to control
Conditions: time 20.0 min

Prostaglandin G/H synthase 1, sequence (P23219 whole entry): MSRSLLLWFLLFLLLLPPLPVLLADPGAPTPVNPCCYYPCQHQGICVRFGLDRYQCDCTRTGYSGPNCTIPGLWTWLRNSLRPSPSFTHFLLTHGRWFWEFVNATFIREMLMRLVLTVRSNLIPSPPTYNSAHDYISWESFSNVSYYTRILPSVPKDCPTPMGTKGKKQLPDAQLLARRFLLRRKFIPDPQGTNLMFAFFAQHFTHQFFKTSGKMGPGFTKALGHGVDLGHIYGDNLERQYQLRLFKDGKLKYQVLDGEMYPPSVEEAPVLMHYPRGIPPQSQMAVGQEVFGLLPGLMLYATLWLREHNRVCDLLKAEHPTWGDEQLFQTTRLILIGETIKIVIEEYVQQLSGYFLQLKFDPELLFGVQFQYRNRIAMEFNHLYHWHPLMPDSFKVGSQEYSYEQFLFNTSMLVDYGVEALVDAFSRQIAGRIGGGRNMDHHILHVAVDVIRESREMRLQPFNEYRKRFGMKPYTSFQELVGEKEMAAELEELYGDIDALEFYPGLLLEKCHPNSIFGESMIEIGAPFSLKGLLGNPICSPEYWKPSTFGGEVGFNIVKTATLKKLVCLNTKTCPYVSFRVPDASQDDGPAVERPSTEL

inhibition	Structure (SMILES)
> 64%	CO[C@H]1[C@@H]2OCOCO[C@H]2[C@H](O[C@@H]2CC(=O)[C@@H]3CCN(Cc4cc5c(cc43)OCO5)C(=O)[C@H]2O)O[C@@H]1C
> 64%	COc1cc2c(cc1O)CN1CC[C@H]2C(=O)C[C@@H](O[C@@H]2O[C@H](CO)[C@@H](OC)[C@H](OC)[C@H]2OC)[C@H](O)C1=O
> 64%	COc1cc2c(cc1OC)[C@H]1CCN(C2)C(=O)[C@@H](O)[C@H](O[C@@H]2O[C@H](C)[C@@H](OC)[C@H](OC)[C@H]2OC)CC1=O
> 64%	COc1c2c(cc3c1OCO3)[C@H]1CCN(C2)C(=O)[C@@H](O)[C@H](O[C@@H]2O[C@H](CO)[C@@H](OC)[C@H](OC)[C@H]2OC)CC1=O
> 64%	COc1cc2c(cc1OC)[C@H]1CCN(C2)C(=O)[C@@H](O)[C@H](O[C@@H]2O[C@H](C)[C@@H](OC)[C@@H]3OCOCO[C@@H]23)CC1=O

System: RAW264.7
Assay: Inhibition of NO production in LPS-induced mouse RAW264.7 cells
Type: functional, cell-based
Conditions: not given

Structure (SMILES)	IC50
COC1=C[C@@]23CCN(C)[C@@H](Cc4c(CN5CCc6cc(OC)c(OC)c7c6[C@H]5CC75C=CC(=O)C=C5)cc(OC)c(O)c42)C3=CC1=O	1.39 µM
CN1CCc2cc3c(c4c2[C@H]1Cc1c(O)cccc1-4)OCO3	1.39 µM

The remaining lines, values ahead:

IC50	Structure (SMILES)
14.3 µM	C[C@@H]1C[C@@H]2CC[C@@H]3[C@@H](C(=O)C[C@@H]4N5CCCC5C[C@H](C)[C@@]4(O)c4ccccc4)[C@](C)(O)C[C@H](N23)[C@@]1(O)c1ccccc1 (some centres undefined)
47 µM	C[C@@H]1C[C@H]2[C@@H]3CCC4=CC(=O)C=C[C@]4(C)[C@@]3(F)[C@@H](O)C[C@]2(C)[C@@]1(O)C(=O)CO [DEXAMETHASONE]
16.1 µM	C[C@@H]1C[C@@H]2CCCN2[C@H](CC(=O)C[C@H]2N3CCC[C@H]3C[C@@H](C)[C@]2(O)c2ccccc2)[C@H]1c1ccccc1
22.8 µM	O=C(O)c1cc(C(=O)c2ccco2)n2c1CCC2

System: not listed separately
Assay: Inhibition of NO production in LPS-stimulated mouse BV-2 cells incubated for 24 hrs by Griess reagent-based assay
Type: functional, cell-based
Conditions: BV-2, 24 h

IC50	Structure (SMILES)
4.2 µM	CC(=O)O[C@@H]1CC2C3CCCN4CCCC1C34C[C@H](C)[C@H]2O (some centres undefined)
4.2 µM	C[C@@H]1CC2CC(=O)C3CCCN4CCC[C@@]2(O)C34C1 (some centres undefined)
4.2 µM	C[C@H]1CC23C4CCCN2CCCC3[C@H](O)CC4[C@H]1O (some centres undefined)
4.2 µM	CC(=O)O[C@@H]1C2C[C@@H](OC(C)=O)C3CCCN4CCC[C@@]2(O)C34C[C@@H]1C (some centres undefined)
4.2 µM	C[C@@H]1CC2CC(=O)C3CCCN4CC[C@@H](O)[C@]2(O)C34C1 (some centres undefined)

Structure (SMILES)	IC50
C[C@@H]1CC2CC(=O)C3CCCN4CCCC2C34C1 (some centres undefined)	4.2 µM

System: RAW264.7
Assay: Antiinflammatory activity against LPS-stimulated mouse RAW264.7 cells assessed as inhibition of IL-6 production incubated for 24 hrs by ELISA analysis relative to control
Type: functional
Conditions: not given

Structure (SMILES)	inhibition (INH)
O=C1C=CC[C@@H]2[C@H]3CCCN4CCC[C@@H](CN12)[C@@H]34 [SOPHOCARPINE]	>40%
O=C1C(O)=CC[C@@H]2[C@H]3CCCN4CCC[C@@H](CN12)[C@@H]34	>40%
O=c1cccc2n1C[C@@H]1C[C@H]2CN2CCCC[C@@H]12	>40%
O=c1cccc2n1C[C@@H]1CCCN3CCC[C@@H]2[C@H]13	>40%

System: RAW264.7
Assay: Antiinflammatory activity against LPS-stimulated mouse RAW264.7 cells assessed as inhibition of TNF-alpha production incubated for 24 hrs by ELISA analysis relative to control
Type: functional
Conditions: not given

Structure (SMILES)	inhibition (INH)
O=C1C=CC[C@@H]2[C@H]3CCCN4CCC[C@@H](CN12)[C@@H]34 [SOPHOCARPINE]	>40%
O=C1C(O)=CC[C@@H]2[C@H]3CCCN4CCC[C@@H](CN12)[C@@H]34	>40%
O=c1cccc2n1C[C@@H]1C[C@H]2CN2CCCC[C@@H]12	>40%
O=c1cccc2n1C[C@@H]1CCCN3CCC[C@@H]2[C@H]13	>40%
